Laboratory results taken from US20140343097A1, “5-(2-1-HYDROXYETHYL)-8-HYDROXYQUINOLIN-2(1H)-ONE FOR THE TREATMENT OF LUNG FUNCTION” (ALMIRALL, S.A., priority 2009, published 2014).

System: men with mild to moderate persistent asthma (lung function, FEV1)
Experiment: Clinical Phase II cross-over study: FEV1 by spirometry after single inhaled doses in asthma patients
Assay type: in vivo, human
Details: for Peak FEV1 / Peak FEV1 increase over baseline / Peak FEV1 increase over placebo / Trough FEV1 / Trough FEV1 increase over baseline / Trough FEV1 increase over placebo: average, compound single dose 25 mcg, salmeterol 50 mcg at 0 and 12 hours; for Peak FEV1: inhalation by dry powder inhaler; for Peak FEV1 increase over baseline / Peak FEV1 increase over placebo / Trough FEV1 / Trough FEV1 increase over baseline / Trough FEV1 increase over placebo: inhalation
Description: Clinical Phase II study: A randomised double-blind, double-dummy, placebo and active comparator-controlled, cross-over trial assesses the activity, safety, tolerability and pharmacokinetics of single doses of 5-(2-{[6-(2,2-difluoro-2-phenylethoxy)hexyl]amino}-1-(R)-hydroxyethyl)-8-hydroxyquinolin-2(1H)-one heminapadisylate by inhalation in asthma patients.
Methods: Men with a diagnosis of mild to moderate persistent asthma, as defined by the 2006 GINA guideline, for at least 6 months prior to screening and with a FEV1 61-85% of the predicted normal values (according to Quanjer et al. 1993) were randomised to treatment sequences comprising a single-dose administration of 5-(2-{[6-(2,2-difluoro-2-phenylethoxy)hexyl]amino}-1-(R)-hydroxyethyl)-8-hydroxyquinolin-2(1H)-one heminapadisylate (at a metered nominal dose of 25 micrograms in the Cyclohaler® device), two administrations (at time points 0 and 12 hours) of Salmeterol (at a metered nominal dose of 50 micrograms in the Cyclohaler® device) and placebo administered all of them by means of a dry powder inhaler. Lung function measurements included (by spirometry) FEV1, PEF, FVC, FEF25-75, and (by body plethysmography) sGaw and Raw.
Results: 25 males (aged 18 to 70) took part in the study.

[1] = 25 micrograms single inhaled dose

| SMILES | average peak and trough FEV1 compared with placebo and with salmeterol [1] | increase in average trough FEV1 compared to salmeterol (two doses) [1] | Peak FEV1 [L] | Peak FEV1 increase over baseline [mL] | Peak FEV1 increase over placebo [mL] | Trough FEV1 [L] | Trough FEV1 increase over baseline [mL] | Trough FEV1 increase over placebo [mL] | FEV1 values compared with salmeterol (single dose 25 micrograms) | bronchodilation: size, duration and onset (single dose 25 micrograms) |
| --- | --- | --- | --- | --- | --- | --- | --- | --- | --- | --- |
| O=c1ccc2c([C@@H](O)CNCCCCCCOCC(F)(F)c3ccccc3)ccc(O)c2[nH]1 [5-(2-{[6-(2,2-difluoro-2-phenylethoxy)hexyl]amino}-1-(R)-hydroxyethyl)-8-hydroxyquinolin-2(1H)-one] | clearly increased | statistically significant | 3.819 | 843 | 618 | 3.642 | 666 | 718 | significantly higher than those produced by salmeterol | surprisingly large, long-lasting bronchodilation, with a fast onset |
| OCc1cc(C(O)CNCCCCCCOCCCCc2ccccc2)ccc1O (stereo not shown) [Salmeterol, 2-(hydroxymethyl)-4-{1-hydroxy-2-[6-(4-phenylbutoxy)hexylamino]ethyl}phenol, reference compound] |  |  | 3.521 | 667 | 442 | 3.209 | 355 | 285 |  |  |
